# From US20040192640A1, “Use of sucralfate for the treatment of cervical erosion” (priority 2004, published 2004)
# What was measured:
# [1] = system: NSAID-induced ulceration; conditions: cited from earlier work
# [2] = system: cervical erosion; experiment: Clinical test of topical intravaginal sucralfate gel for cervical erosion (colposcopic examination, signs and symptoms); assay type: in vivo, women; conditions: after six weeks of treatment (so in the source); both formulations together
# Text: Based on the observed colposcopic picture of the situation and on the seriousness of the possible accompanying inflammation state the patients under test have been classified according to a conventional classification of the cervical pathology, according to the following grade scheme.
# Grade I: simple cervicitis; presence of mosaic-shaped lesions and ectopia; reduced leuconrhea and absence of dyspareunia (abnormal pain during sexual intercourse);
# Grade II: cervicitis with extended erosion of the portio (30% of the surface); presence of altered epithelium; occasional blood discharge and occasional dyspareunia;
# Grade III: cervicitis with extended erosion of the portio (50% of the surface); presence of ectopia; frequent blood discharge; leucorrhea and dyspareunia.
# The 18 women, after final diagnosis, were divided into two test groups of nine patients each, in order to evaluate the effectiveness of the treatment according to the invention in two different formulations. The first formulation, continuing sucralfate at a concentration of 25% by weight as well as polycarbophil as a mucoadhesive/bioadhesive ingredient, corresponds to the preparation referred to above as Formulation 2, while the second formulation under test containing sucralfate at a concentration of 12.5% by weight as well as polycarbophil, corresponds to the Formulation 3. […]
# [3] = system: duodenal ulcer; conditions: oral dose of 1 g four times daily, for 4-8 weeks; cited from earlier work
substance,measurement,setting,value
β-D-fructofuranosyl-α-D-glucopyranoside octakis(hydrogen sulfate) aluminium complex [sucralfate],"Effectiveness in NSAID-induced ulceration, duodenal localizations",[1]; duodenal localizations,effective
same,"Effect in NSAID-induced ulceration, gastric lesions",[1]; when gastric lesions are present,only a symptomatic and non-reparative effect
same,Patients considered on complete recovery,[2],16 patients out of 18
same,Clinical effectiveness (cases),[3],75 % of cases
